# Measurements as given in patent US12465050B2, “Compositions comprising a pyridine carboxylate herbicide and protoporphyrinogen oxidase (protox) inhibitor herbicides” (priority 2018, dated 2025).
# Legend:
# Format in all cases: in vivo
# [1] = test system: Cyanus segetum (cornflower); assay: Greenhouse postemergence herbicidal effect on CENCY
# Text: (§1) Greenhouse Trial Methodology—Evaluation of Postemergence Herbicidal Effect
# (§2) Seeds of the desired test plant species were planted in a 90:10% v/v (volume/volume) mixture of PRO-MIX® BX (Premier Tech Horticulture, Quakertown, Pa., USA) and PROFILE® GREENS GRADE™ (Profile Products LLC, Buffalo Grove, Ill., USA) planting mixture, which typically has a pH of 5.2 to 6.2 and an organic matter content of at least 50 percent, in plastic pots with a surface area of 103.2 square centimeters (cm^2). In some aspects or embodiments, to help ensure good germination and healthy plants, a fungicide treatment and/or other chemical or physical treatment was applied. The plants were grown for 7-36 days (d) in a greenhouse with an approximate 14-hour (h) photoperiod which was maintained at about 23° C. during the day and 22° C. during the night. Nutrients and water were added on a regular basis and supplemental lighting was provided with overhead metal halide 1000-Watt lamps as necessary. The plants were employed for testing when they reached the second or third true leaf stage.
# (§3) Emulsifiable concentrates of each of each pyridine carboxylate herbicide (Compound A or Compound B) were prepared at 100 grams acid equivalent per liter (g ae/L). The emulsifiable concentrates also included a safener, cloquintocet mexyl, at 120 grams active ingredient per liter (g ai/L). An aliquot of each emulsifiable concentrate was placed in a 25 mL glass vial and diluted with an aqueous mixture of 1.25% (v/v) ACTIROB® B esterified rapeseed oil (Bayer Crop Science, Research Triangle Park, N.C., USA) or MSO® Concentrate with LECI-TECH® methylated soybean oil (Loveland Products, Loveland, Colo., USA) to obtain concentrated stock solutions at the highest application rate for each herbicide, based upon a 12 milliliter (mL) application volume at a rate of 187 liters per hectare (L/ha). The concentrated stock solutions were further diluted with an aqueous mixture of 1.25% v/v ACTIROB® B or MSO® Concentrate with LECI-TECH® to obtain stock solutions at reduced application rates for each herbicide. Spray solutions of the herbicide combinations (Compound A or Compound B plus PROTOX inhibitor herbicide) were prepared by adding weighed amounts or aliquots of the PROTOX inhibitor herbicides to the stock solutions of Compound A or Compound B to form 12-mL spray solutions in two-way combinations. […]
# (§4) The treated plants and control plants were placed in a greenhouse as described above and watered by sub-irrigation to prevent wash-off of the test compounds. After 20-22 d, the condition of the test plants as compared with that of the control plants was determined visually and scored on a scale of 0 to 100 percent where 0 corresponds to no injury and 100 corresponds to complete kill.
# [2] = test system: Matricaria inodora (scentless chamomile); assay: Greenhouse postemergence herbicidal effect on MATIN
# Text: as §1, §2, §3, §4
# [3] = test system: Brassica napus (spring rape); assay: Greenhouse postemergence herbicidal effect on BRSNN
# Text: as §1, §2
# (§5) Emulsifiable concentrates of each of each pyridine carboxylate herbicide (Compound A or Compound B) were prepared at 100 grams acid equivalent per liter (g ae/L). The emulsifiable concentrates also included a safener, cloquintocet mexyl, at 120 grams active ingredient per liter (g ai/L). An aliquot of each emulsifiable concentrate was placed in a 25 mL glass vial and diluted with an aqueous mixture of 1.25% (v/v) ACTIROB® B esterified rapeseed oil (Bayer Crop Science, Research Triangle Park, N.C., USA) or MSO® Concentrate with LECI-TECH® methylated soybean oil (Loveland Products, Loveland, Colo., USA) to obtain concentrated stock solutions at the highest application rate for each herbicide, based upon a 12 milliliter (mL) application volume at a rate of 187 liters per hectare (L/ha). The concentrated stock solutions were further diluted with an aqueous mixture of 1.25% v/v ACTIROB® B or MSO® Concentrate with LECI-TECH® to obtain stock solutions at reduced application rates for each herbicide. Spray solutions of the herbicide combinations (Compound A or Compound B plus PROTOX inhibitor herbicide) were prepared by adding weighed amounts or aliquots of the PROTOX inhibitor herbicides to the stock solutions of Compound A or Compound B to form 12-mL spray solutions in two-way combinations.
# (§6) The spray solutions were applied to the plant material with an overhead Mandel track sprayer equipped with 8002E nozzles calibrated to deliver 187 L/ha over an application area of 0.503 square meters (m^2) at a spray height of 18 inches (43 centimeters (cm)) above the average plant canopy. Control plants were sprayed in the same manner with the solvent blank. All pyridine carboxylate herbicide (component a) application rates are given as “g ae/ha” and all PROTOX inhibitor herbicide (component b) application rates are given as “g ai/ha.”
# as §4
# [4] = test system: Sinapis arvensis (wild mustard); assay: Greenhouse postemergence herbicidal effect on SINAR
# Text: as §1, §2, §5, §6, §4
# [5] = test system: Hordeum vulgare (winter barley); assay: Greenhouse postemergence phytotoxicity on crop HORVW
# Text: as §1, §2, §3, §4
# [6] = test system: Stellaria media (chickweed); assay: Greenhouse postemergence herbicidal effect on STEME
# Text: as §1, §2, §3, §4
# Avena fatua (wild oat) = assay: Greenhouse postemergence herbicidal effect on AVEFA
# Text: as §1, §2
# (§7) Emulsifiable concentrates of each of each pyridine carboxylate herbicide (Compound A or Compound B) were prepared at 100 grams acid equivalent per liter (g ae/L). The emulsifiable concentrates also included a safener, cloquintocet mexyl, at 120 grams active ingredient per liter (g ai/L). […]
# as §4
# [7] = test system: Matricaria discoidea (pineapple weed); assay: Greenhouse postemergence herbicidal effect on MATMT
# Text: as §1, §2, §3, §4
# [8] = test system: Veronica persica (Persian speedwell); assay: Greenhouse postemergence herbicidal effect on VERPE
# Text: as §1, §2, §3, §4
# [9] = test system: Brassica napus (winter rape); assay: Greenhouse postemergence herbicidal effect on BRSNW
# Text: as §1, §2, §5, §6, §4
# [10] = test system: Abutilon theophrasti (velvetleaf); assay: Greenhouse postemergence herbicidal effect on ABUTH
# Text: as §1, §2, §7, §4
# [11] = test system: Chenopodium album L. (common lambsquarters); assay: Greenhouse postemergence herbicidal effect on CHEAL
# Text: as §1, §2, §5, §6, §4
# [12] = test system: Hordeum vulgare (spring barley); assay: Greenhouse postemergence phytotoxicity on crop HORVS
# Text: as §1, §2, §5, §6, §4
# [13] = test system: Triticum aestivum (spring wheat); assay: Greenhouse postemergence phytotoxicity on crop TRZAS
# Text: as §1, §2, §5, §6, §4
# Zea mays (maize) = assay: Greenhouse postemergence phytotoxicity on crop ZEAMX
# Text: as §1, §2, §7, §4
# [14] = Compound A 7.5, Oxyfluorfen 0 g/ha
# [15] = Compound A 10, Oxyfluorfen 0 g/ha
# [16] = Compound A 15, Oxyfluorfen 0 g/ha
# [17] = Compound A 7.5, Pyraclonil 0 g/ha
# [18] = Compound A 7.5, Saflufenacil 0 g/ha
# [19] = Compound A 10, Pyraclonil 0 g/ha
# [20] = Compound A 10, Saflufenacil 0 g/ha
# [21] = Compound A 7.5, Pyraflufen-ethyl 0 g/ha
# [22] = Compound A 10, Pyraflufen-ethyl 0 g/ha
# [23] = Compound A 7.5, Carfentrazone-ethyl 0 g/ha
# [24] = Compound A 10, Carfentrazone-ethyl 0 g/ha
smiles,measurement,setting,value
"N#CCOC(=O)c1nc(-c2ccc3cc[nH]c3c2F)c(F)c(N)c1Cl [Compound A, cyanomethyl 4-amino-3-chloro-5-fluoro-6-(7-fluoro-1H-indol-6-yl)pyridine-2-carboxylate]","% visual injury, Obs",[1]; [14],75%
same,"% visual injury, Obs",[1]; [15],78%
same,"% visual injury, Obs",[1]; [16],80%
same,"% visual injury, Obs",[2]; [14],55%
same,"% visual injury, Obs",[2]; [15],60%
same,"% visual injury, Obs",[2]; [16],83%
same,"% visual injury, Obs","[3]; Compound A 7.5, Bifenox 0 g/ha",23%
same,"% visual injury, Obs",[3]; [17],55%
same,"% visual injury, Obs",[3]; [18],65%
same,"% visual injury, Obs","[3]; Compound A 10, Bifenox 0 g/ha",45%
same,"% visual injury, Obs",[3]; [19],60%
same,"% visual injury, Obs",[3]; [20],65%
same,"% visual injury, Obs",[4]; [14],88%
same,"% visual injury, Obs",[4]; [17],88%
same,"% visual injury, Obs",[4]; [21],83%
same,"% visual injury, Obs",[4]; [15],91%
same,"% visual injury, Obs",[4]; [19],92%
same,"% visual injury, Obs",[4]; [22],88%
same,"% visual injury, Obs",[4]; [16],91%
same,"% visual injury, Obs",[5]; [14],0%
same,"% visual injury, Obs",[5]; [15],0%
same,"% visual injury, Obs",[5]; [16],0%
same,"% visual injury, Obs",[6]; [14],85%
same,"% visual injury, Obs",[6]; [15],88%
same,"% visual injury, Obs",[6]; [16],89%
same,"% visual injury, Obs","Avena fatua (wild oat); Compound A 7.5, Bifenox 0 g/ha",0%
same,"% visual injury, Obs","Avena fatua (wild oat); Compound A 10, Bifenox 0 g/ha",0%
same,"% visual injury, Obs",[7]; [14],20%
same,"% visual injury, Obs",[7]; [15],20%
same,"% visual injury, Obs",[7]; [16],63%
same,"% visual injury, Obs",[8]; [14],78%
same,"% visual injury, Obs",[8]; [15],90%
same,"% visual injury, Obs",[8]; [16],93%
same,"% visual injury, Obs",[9]; [14],60%
same,"% visual injury, Obs",[9]; [21],35%
same,"% visual injury, Obs",[9]; [15],65%
same,"% visual injury, Obs",[9]; [22],40%
same,"% visual injury, Obs",[9]; [16],73%
same,"% visual injury, Obs",[10]; [18],68%
same,"% visual injury, Obs",[10]; [20],80%
same,"% visual injury, Obs",[11]; [17],70%
same,"% visual injury, Obs",[11]; [21],75%
same,"% visual injury, Obs",[11]; [19],83%
same,"% visual injury, Obs",[11]; [22],80%
same,"% visual injury, Obs",[12]; [23],8%
same,"% visual injury, Obs",[12]; [14],0%
same,"% visual injury, Obs",[12]; [17],8%
same,"% visual injury, Obs",[12]; [21],0%
same,"% visual injury, Obs",[12]; [24],0%
same,"% visual injury, Obs",[12]; [15],0%
same,"% visual injury, Obs",[12]; [19],0%
same,"% visual injury, Obs",[12]; [22],0%
same,"% visual injury, Obs",[12]; [16],0%
same,"% visual injury, Obs",[13]; [23],0%
same,"% visual injury, Obs",[13]; [14],0%
same,"% visual injury, Obs",[13]; [17],0%
same,"% visual injury, Obs",[13]; [21],0%
same,"% visual injury, Obs",[13]; [18],5%
same,"% visual injury, Obs",[13]; [24],0%
same,"% visual injury, Obs",[13]; [15],0%
same,"% visual injury, Obs",[13]; [19],0%
same,"% visual injury, Obs",[13]; [22],0%
same,"% visual injury, Obs",[13]; [20],3%
same,"% visual injury, Obs",[13]; [16],0%
same,"% visual injury, Obs",Zea mays (maize); [18],0%
same,"% visual injury, Obs",Zea mays (maize); [20],0%
